Assay results reported in patent US11840686B2, “Modulation of prekallikrein (PKK) expression” (Ionis Pharmaceuticals, Inc., priority 2013, dated 2023).
Strand notation (5' to 3'): a small letter for the sugar, then the base; units joined by * are phosphorothioate-linked, units joined directly phosphodiester-linked; [ ] holds rarer units or linkages, { } end groups; capitals alone tell only the bases. e = 2'-O-(2-methoxyethyl) (MOE); [5mC] = 5-methylcytosine; d = 2'-deoxy (DNA)

These substances were tested on human PKK mRNA (assay: Antisense inhibition of human PKK mRNA in HepaRG cells, 3,000 nM (Example 1)). Conditions: Table 1; PKK mRNA, HepaRG cells, 3,000 nM, electroporation, ~24 h, relative to untreated control cells.
Type: cell-based
Method in brief: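 HepaRG cells, 20,000 per well, were electroporated with 3,000 nM 5-10-5 MOE gapmer (phosphorothioate, 5-methylcytosine). After about 24 h, PKK mRNA was measured by qRT-PCR with primer probe set RTS3454 and normalised to RIBOGREEN total RNA. Values are percent inhibition versus untreated cells.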
“530940 (antisense eT*eA*eG*e[5mC]*eA*dA*dA*d[5mC]*dA*dA*dG*dG*dA*dA*dA*eT*eG*eA*eA*eA) [compound 530940]” was tested, and the “% inhibition” value was 7%. For “530966 (antisense eA*eA*eT*eT*eT*d[5mC]*dT*dG*dA*dA*dA*dG*dG*dG*d[5mC]*eA*e[5mC]*eA*eG*eG) [compound 530966]”, the “% inhibition” value was 58%. In the case of “530977 (antisense eT*e[5mC]*e[5mC]*eA*eG*dA*dT*dA*dT*dG*dG*dT*dG*dT*dT*eT*eT*e[5mC]*eT*eT) [compound 530977]”, the “% inhibition” value is reported as 55%. For “530978 (antisense e[5mC]*eT*eA*eT*eA*dT*d[5mC]*d[5mC]*dA*dG*dA*dT*dA*dT*dG*eG*eT*eG*eT*eT) [compound 530978]”, the “% inhibition” value was 0%. In the case of “530948 (antisense eA*e[5mC]*eA*eT*eG*dG*dA*dA*dG*d[5mC]*dT*dA*d[5mC]*dA*dT*e[5mC]*e[5mC]*e[5mC]*e[5mC]*eA) [compound 530948]”, the “% inhibition” value is reported as 35%.

Same assay, conditions: Table 2; PKK mRNA, HepaRG cells, 3,000 nM, electroporation, ~24 h, relative to untreated control cells
For “531028 (antisense eA*eA*eT*eT*e[5mC]*dA*dA*dA*dG*dG*dA*dG*d[5mC]*d[5mC]*dT*eG*eG*eA*eG*eT) [compound 531028]”, the “% inhibition” value was 56%. With “531058 (antisense e[5mC]*e[5mC]*e[5mC]*eT*eT*dA*d[5mC]*dA*dA*dG*d[5mC]*dA*dT*d[5mC]*dT*eT*eT*eT*e[5mC]*e[5mC]) [compound 531058]” the “% inhibition” value was 60%. “531013 (e[5mC]*e[5mC]*eA*eG*eG*dG*d[5mC]*d[5mC]*dA*d[5mC]*dT*d[5mC]*dT*d[5mC]*d[5mC]*e[5mC]*e[5mC]*eA*eA*eG; antisense) [compound 531013]” was tested, and the “% inhibition” value was 56%. For “531041 (antisense eA*eA*eA*eG*eG*dA*dA*dT*dA*dT*dT*dT*dA*d[5mC]*d[5mC]*eT*eT*eT*eT*eG) [compound 531041]”, the “% inhibition” value was 68%. “531034 (antisense e[5mC]*eA*eT*eA*eT*dT*dG*dG*dT*dT*dT*dT*dT*dG*dG*eA*eA*eT*eT*e[5mC]) [compound 531034]” was tested, and the “% inhibition” value was 36%. In the case of “531007 (eA*eA*e[5mC]*eA*e[5mC]*dA*dA*dT*dT*dG*d[5mC]*dT*dT*d[5mC]*dT*eT*eG*eG*eA*eG; antisense) [compound 531007]”, the “% inhibition” value is reported as 51%. For “531023 (e[5mC]*eT*eT*eT*eT*dG*dT*dA*dA*dT*dG*dT*d[5mC]*dT*dG*eA*e[5mC]*eA*eG*eA; antisense) [compound 531023]”, the “% inhibition” value was 71%.

Same assay, conditions: Table 3; HepaRG cells, electroporation with 3,000 nM antisense oligonucleotide, approx. 24 hours; PKK mRNA by RT-PCR (RTS3454), relative to untreated control cells
“531108 (antisense eT*eG*eA*eA*e[5mC]*d[5mC]*d[5mC]*dA*dA*dA*dA*d[5mC]*dT*d[5mC]*dT*eG*eG*e[5mC]*eA*e[5mC]) [compound 531108]” was tested, and the “% inhibition” value was 50%. For “531153 (antisense e[5mC]*eT*eA*eG*eA*dA*dG*d[5mC]*dA*dA*dT*dA*dT*dT*dT*eA*eA*eA*eG*e[5mC]) [compound 531153]”, the “% inhibition” value was 0%. For “531087 (e[5mC]*e[5mC]*eA*eG*eG*dT*dG*dT*dG*dG*dA*d[5mC]*dA*dG*d[5mC]*eA*eG*e[5mC]*eT*eG; antisense) [compound 531087]”, the “% inhibition” value was 52%. For “531133 (antisense eT*eT*eT*eT*eG*dT*dT*dG*dT*dG*d[5mC]*dA*dG*dA*d[5mC]*eT*eG*eA*eA*eA) [compound 531133]”, the “% inhibition” value was 19%. In the case of “531148 (antisense eT*eA*e[5mC]*e[5mC]*e[5mC]*dA*dA*dA*dT*dT*dA*dT*dA*d[5mC]*d[5mC]*eT*eG*eG*eA*eA) [compound 531148]”, the “% inhibition” value is reported as 8%. For “531125 (antisense eA*e[5mC]*eT*e[5mC]*eG*d[5mC]*d[5mC]*dT*dT*dT*dG*dT*dG*dA*d[5mC]*eT*e[5mC]*eG*eA*eT) [compound 531125]”, the “% inhibition” value was 23%. For “531089 (eA*eA*eA*eA*e[5mC]*dA*d[5mC]*d[5mC]*dA*dT*dT*dA*dA*dA*dT*e[5mC]*e[5mC]*eA*eT*eT; antisense) [compound 531089]”, the “% inhibition” value was 45%. For “531100 (e[5mC]*e[5mC]*e[5mC]*e[5mC]*e[5mC]*dT*d[5mC]*d[5mC]*d[5mC]*dT*dT*d[5mC]*d[5mC]*d[5mC]*dT*eA*e[5mC]*eA*e[5mC]*eA; antisense) [compound 531100]”, the “% inhibition” value was 0%. With “531101 (eA*eT*eG*eT*eA*dA*dG*dT*dT*dA*d[5mC]*dA*dA*dG*d[5mC]*e[5mC]*eA*e[5mC]*eT*eA; antisense) [compound 531101]” the “% inhibition” value was 37%. In the case of “531131 (antisense eT*eA*eG*eA*eA*dA*dG*dA*dG*dT*dA*dA*dG*d[5mC]*d[5mC]*eT*eT*e[5mC]*eA*e[5mC]) [compound 531131]”, the “% inhibition” value is reported as 0%. “531129 (antisense eA*eG*e[5mC]*eA*eG*d[5mC]*dT*d[5mC]*dA*d[5mC]*dA*d[5mC]*d[5mC]*d[5mC]*dA*eA*eA*eA*eA*eG) [compound 531129]” was tested, and the “% inhibition” value was 0%. In the case of “531157 (antisense eA*eA*eG*eT*eG*dA*dA*dT*d[5mC]*dA*dG*dA*dG*d[5mC]*dA*eG*eT*eG*eT*eA) [compound 531157]”, the “% inhibition” value is reported as 46%. In the case of “531090 (eA*e[5mC]*eA*eG*eA*dA*dA*d[5mC]*d[5mC]*dA*dT*dG*dA*dT*dG*eT*eT*eG*e[5mC]*eT; antisense) [compound 531090]”, the “% inhibition” value is reported as 59%. For “531111 (antisense e[5mC]*eT*eT*e[5mC]*eT*d[5mC]*d[5mC]*dT*dG*dG*d[5mC]*dT*d[5mC]*dA*dG*eA*eA*eG*e[5mC]*eT) [compound 531111]”, the “% inhibition” value was 68%. With “531116 (antisense eT*eT*eG*eT*eT*dA*dA*dG*dG*dT*dT*dG*dT*dA*dG*eA*eG*eA*eG*eA) [compound 531116]” the “% inhibition” value was 23%. For “531151 (antisense eT*e[5mC]*eA*e[5mC]*e[5mC]*dA*d[5mC]*d[5mC]*dA*dT*dT*dT*dT*dT*d[5mC]*eA*e[5mC]*eA*eT*eG) [compound 531151]”, the “% inhibition” value was 44%. For “531141 (antisense eT*eG*e[5mC]*eA*eA*dG*dG*d[5mC]*dA*dT*dG*dT*dG*dT*dG*e[5mC]*eA*e[5mC]*eA*eA) [compound 531141]”, the “% inhibition” value was 47%.

Same assay, conditions: Table 4; HepaRG cells, electroporation with 3,000 nM antisense oligonucleotide, approx. 24 hours; PKK mRNA by RT-PCR (RTS3454), relative to untreated control cells
For “531170 (antisense eG*e[5mC]*e[5mC]*eT*eG*dG*d[5mC]*d[5mC]*d[5mC]*d[5mC]*d[5mC]*dA*dA*dG*dA*e[5mC]*eT*e[5mC]*eT*eA) [compound 531170]”, the “% inhibition” value was 54%. For “531200 (e[5mC]*eA*eA*eA*eA*dT*d[5mC]*dA*d[5mC]*dA*dA*dG*dT*dT*d[5mC]*eT*eA*eG*eA*eT; antisense) [compound 531200]”, the “% inhibition” value was 51%. With “531204 (e[5mC]*eT*eT*eG*eT*dA*dG*dT*d[5mC]*dT*dG*d[5mC]*dA*d[5mC]*dT*eT*eA*eA*eT*eG; antisense) [compound 531204]” the “% inhibition” value was 60%. “531195 (eA*eT*eA*eA*eA*dA*dT*dA*dT*dA*dT*dT*dA*dA*dG*eG*e[5mC]*eA*eA*e[5mC]; antisense) [compound 531195]” was tested, and the “% inhibition” value was 61%. “531184 (antisense eA*e[5mC]*eT*e[5mC]*eT*dT*dA*dT*dT*dA*dG*d[5mC]*dT*dG*dG*eT*eA*eG*eA*eA) [compound 531184]” was tested, and the “% inhibition” value was 74%. With “531197 (eT*eA*e[5mC]*e[5mC]*eT*dT*dT*dT*d[5mC]*dT*d[5mC]*d[5mC]*dA*dT*dG*eT*e[5mC]*eA*eT*eT; antisense) [compound 531197]” the “% inhibition” value was 42%. With “531181 (antisense eG*eG*eT*eT*eG*dA*dG*dG*dG*dA*d[5mC]*dA*dG*dA*d[5mC]*eA*e[5mC]*eA*eG*eG) [compound 531181]” the “% inhibition” value was 36%.
